From PubChem BioAssay (NCI)
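Following 48 hours of exposure in 96-well plates, responses at five concentrations were used to interpolate endpoints linearly. GI50 is the concentration that inhibits growth by half. TGI: concentration producing complete growth inhibition.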

How the values were obtained:
Test in all cases: NCI tumour cell line growth inhibition, 48 h
TK-10 renal = test system: TK-10 renal
SF-295 CNS = test system: SF-295 CNS
786-0 renal = test system: 786-0 renal
SK-MEL-2 melanoma = test system: SK-MEL-2 melanoma
SNB-75 CNS = test system: SNB-75 CNS
HOP-62 NSCLC = test system: HOP-62 NSCLC
HOP-92 NSCLC = test system: HOP-92 NSCLC
HL-60(TB) leukemia = test system: HL-60(TB) leukemia
NCI/ADR-RES ovarian = test system: NCI/ADR-RES ovarian
MDA-MB-231 breast = test system: MDA-MB-231 breast

Structure (SMILES)	TGI (TK-10 renal) [µM]	TGI (SF-295 CNS) [µM]	TGI (786-0 renal) [µM]	TGI (SK-MEL-2 melanoma) [µM]	TGI (SNB-75 CNS) [µM]	TGI (HOP-62 NSCLC) [µM]	TGI (HOP-92 NSCLC) [µM]	TGI (HL-60(TB) leukemia) [µM]	GI50 (TK-10 renal) [µM]	GI50 (NCI/ADR-RES ovarian) [µM]	TGI (NCI/ADR-RES ovarian) [µM]	GI50 (SF-295 CNS) [µM]	GI50 (786-0 renal) [µM]	GI50 (SK-MEL-2 melanoma) [µM]	GI50 (SNB-75 CNS) [µM]	GI50 (HOP-62 NSCLC) [µM]	GI50 (MDA-MB-231 breast) [µM]	TGI (MDA-MB-231 breast) [µM]	GI50 (HL-60(TB) leukemia) [nM]	GI50 (HOP-92 NSCLC) [nM]
COC(=O)NC(=O)c1cn(CCCOC(=O)CCCCCCCCC(=O)OCCCn2cc(C(=O)NC(=O)OC)c(=O)[nH]c2=O)c(=O)[nH]c1=O	> 100	> 100	> 100	> 100	50.1	78.5	95.2	> 100	–	–	–	–	–	–	–	–	–	–	–	–
CCCCCCCCCCCC(=O)c1c(O)cccc1O	92.4	31.4	32.8	30	31.9	31.5	32.3	43.6	–	–	–	–	–	–	–	–	–	–	–	–
O=C(Nc1ccccc1O)c1ccc(CNC(=O)c2sccc2Nc2ccnc(C(F)(F)F)c2)cc1	22.7	21.8	25	28.5	44.5	42.7	–	44.8	4.76	4.67	46.9	8.33	9.92	6.97	4.96	10.9	9.05	27.4	6270	–
Cc1nc2cc(Nc3nc(Nc4ccc(F)cc4)nc(N4CCN(C)CC4)n3)ccc2n1Cc1ccccc1	–	3.6	3.32	3.58	2.79	3.65	–	3.36	–	2.71	7.6	1.82	1.54	1.97	1.4	1.85	1.69	3.36	1340	–
Nc1ccc2ccc(NS(=O)(=O)N3CCCCC3)cc2c1	> 100	2.88	> 100	> 100	> 100	> 100	73.1	> 100	3.15	–	–	0.228	5.32	–	0.446	–	0.728	> 33.7	327	532
CC1CCP(=O)(c2ccccc2)CC1 (stereo unspecified)	> 100	> 100	> 100	> 100	> 100	> 100	–	> 100	–	–	–	–	–	–	–	–	–	–	–	–
CC1(C)CC(=O)C(=[N+]=[N-])C(=O)C1	> 100	> 100	> 100	> 100	> 100	> 100	> 100	> 100	–	–	–	–	–	–	–	–	–	–	–	–
Cc1cccc(C)c1NC(=O)CCC(=O)NC(N)=S	> 100	> 100	> 100	–	> 100	> 100	> 100	> 100	–	–	–	–	–	–	–	–	–	–	–	–
CCN(CC)CCOc1ccc2c(c1)C(=O)c1cc(OCCN(CC)CC)ccc1-2	90.9	49.1	21.8	24.4	24.9	28	–	17.5	19.2	9.63	33.2	17.2	7.17	11.3	12.2	8.12	10.4	33.8	3040	–
